Assay results reported in PubChem BioAssay (NCI).
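Tested at 5 concentrations; 48 h exposure; 96-well plates; endpoints linearly interpolated, else capped at highest concentration. The concentration for 50% growth inhibition is given as GI50. TGI: concentration producing complete growth inhibition.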

Legend:
Assay in all cases: NCI-60 cell line screen, 48 h
[1] = system: SK-MEL-2 melanoma
[2] = system: LOX IMVI melanoma
[3] = system: SF-268 CNS
[4] = system: NCI-H460 lung
[5] = system: UO-31 renal
[6] = system: IGROV1 ovarian
[7] = system: UACC-62 melanoma
[8] = system: HCC-2998 colon
[9] = system: 786-0 renal
[10] = system: SW-620 colon
[11] = system: K-562 leukemia
[12] = system: HCT-15 colon
[13] = system: NCI/ADR-RES ovarian
[14] = system: SF-295 CNS
[15] = system: CAKI-1 renal
[16] = system: SNB-75 CNS
[17] = system: OVCAR-5 ovarian
[18] = system: RPMI-8226 leukemia
[19] = system: M14 melanoma
[20] = system: TK-10 renal
[21] = system: HL-60(TB) leukemia
[22] = system: HT29 colon
[23] = system: ACHN renal
[24] = system: SK-MEL-28 melanoma
[25] = system: SF-539 CNS
[26] = system: MOLT-4 leukemia
[27] = system: KM12 colon
[28] = system: U251 CNS
[29] = system: HOP-62 NSCLC
[30] = system: SN12C renal
[31] = system: COLO 205 colon
[32] = system: MDA-MB-231 breast
[33] = system: A498 renal
[34] = system: HS 578T breast
[35] = system: MCF7 breast
[36] = system: OVCAR-8 ovarian
[37] = system: T-47D breast
[38] = system: CCRF-CEM leukemia
[39] = system: HCT-116 colon
[40] = system: NCI-H226 lung
[41] = system: PC-3 prostate
[42] = system: SK-OV-3 ovarian
[43] = system: NCI-H522 lung
[44] = system: NCI-H23 lung
[45] = system: A549 NSCLC
[46] = system: OVCAR-4 ovarian
[47] = system: MALME-3M melanoma
[48] = system: EKVX NSCLC
[49] = system: SR leukemia
[50] = system: OVCAR-3 ovarian
[51] = system: SK-MEL-5 melanoma
[52] = system: SNB-19 CNS
[53] = system: HOP-92 NSCLC
[54] = system: DU-145 prostate
[55] = system: UACC-257 melanoma
[56] = system: MDA-MB-435
[57] = system: BT-549 breast
[58] = system: RXF 393 renal

COC(=O)c1cc2c(cc1Cl)SC1=NN(C)C(N(C)C)N1S2(=O)=O (stereo not given)
GI50 [1]: > 100 µM | TGI [1]: > 100 µM | GI50 [2]: > 100 µM | TGI [2]: > 100 µM | GI50 [3]: > 100 µM | TGI [3]: > 100 µM | GI50 [4]: > 100 µM | TGI [4]: > 100 µM | GI50 [5]: > 100 µM | TGI [5]: > 100 µM | GI50 [6]: > 100 µM | TGI [6]: > 100 µM | GI50 [7]: > 100 µM | TGI [7]: > 100 µM | GI50 [8]: > 100 µM | TGI [8]: > 100 µM | GI50 [9]: > 100 µM | TGI [9]: > 100 µM | GI50 [10]: > 100 µM | TGI [10]: > 100 µM | GI50 [11]: > 100 µM | TGI [11]: > 100 µM | GI50 [12]: > 100 µM | TGI [12]: > 100 µM | GI50 [13]: > 100 µM | TGI [13]: > 100 µM | GI50 [14]: > 100 µM | TGI [14]: > 100 µM | GI50 [15]: > 100 µM | TGI [15]: > 100 µM | GI50 [16]: > 100 µM | TGI [16]: > 100 µM | GI50 [17]: > 100 µM | TGI [17]: > 100 µM | GI50 [18]: > 100 µM | TGI [18]: > 100 µM | GI50 [19]: > 100 µM | TGI [19]: > 100 µM | GI50 [20]: > 100 µM | TGI [20]: > 100 µM | GI50 [21]: > 100 µM | TGI [21]: > 100 µM | GI50 [22]: > 100 µM | TGI [22]: > 100 µM | GI50 [23]: > 100 µM | TGI [23]: > 100 µM | GI50 [24]: > 100 µM | TGI [24]: > 100 µM | GI50 [25]: > 100 µM | TGI [25]: > 100 µM | GI50 [26]: 62.8 µM | TGI [26]: > 100 µM | GI50 [27]: > 100 µM | TGI [27]: > 100 µM | GI50 [28]: > 100 µM | TGI [28]: > 100 µM | GI50 [29]: > 100 µM | TGI [29]: > 100 µM | GI50 [30]: > 100 µM | TGI [30]: > 100 µM | GI50 [31]: > 100 µM | TGI [31]: > 100 µM | GI50 [32]: > 100 µM | TGI [32]: > 100 µM | GI50 [33]: > 100 µM | TGI [33]: > 100 µM | GI50 [34]: > 100 µM | TGI [34]: > 100 µM | GI50 [35]: > 100 µM | TGI [35]: > 100 µM | GI50 [36]: > 100 µM | TGI [36]: > 100 µM | GI50 [37]: > 100 µM | TGI [37]: > 100 µM | GI50 [38]: > 100 µM | TGI [38]: > 100 µM | GI50 [39]: > 100 µM | TGI [39]: > 100 µM | GI50 [40]: > 100 µM | TGI [40]: > 100 µM | GI50 [41]: > 100 µM | TGI [41]: > 100 µM | GI50 [42]: > 100 µM | TGI [42]: > 100 µM | GI50 [43]: > 100 µM | TGI [43]: > 100 µM | GI50 [44]: > 100 µM | TGI [44]: > 100 µM | GI50 [45]: > 100 µM | TGI [45]: > 100 µM | GI50 [46]: > 100 µM | TGI [46]: > 100 µM | GI50 [47]: > 100 µM | TGI [47]: > 100 µM | GI50 [48]: > 100 µM | TGI [48]: > 100 µM | GI50 [49]: > 100 µM | TGI [49]: > 100 µM | GI50 [50]: > 100 µM | TGI [50]: > 100 µM | GI50 [51]: > 100 µM | TGI [51]: > 100 µM | GI50 [52]: > 100 µM | TGI [52]: > 100 µM | GI50 [53]: > 100 µM | TGI [53]: > 100 µM | GI50 [54]: > 100 µM | TGI [54]: > 100 µM | GI50 [55]: > 100 µM | TGI [55]: > 100 µM | GI50 [56]: > 100 µM | TGI [56]: > 100 µM | GI50 [57]: > 100 µM | TGI [57]: > 100 µM

N#CCN1CCn2c1nsc2=S
GI50 [1]: > 100 µM | TGI [1]: > 100 µM | GI50 [2]: > 100 µM | TGI [2]: > 100 µM | GI50 [3]: > 100 µM | TGI [3]: > 100 µM | GI50 [4]: > 100 µM | TGI [4]: > 100 µM | GI50 [5]: 44.8 µM | TGI [5]: > 100 µM | GI50 [6]: > 100 µM | TGI [6]: > 100 µM | GI50 [7]: > 100 µM | TGI [7]: > 100 µM | GI50 [9]: > 100 µM | TGI [9]: > 100 µM | GI50 [10]: > 100 µM | TGI [10]: > 100 µM | GI50 [11]: 48.2 µM | TGI [11]: > 100 µM | GI50 [12]: > 100 µM | TGI [12]: > 100 µM | GI50 [58]: > 100 µM | TGI [58]: > 100 µM | GI50 [14]: > 100 µM | TGI [14]: > 100 µM | GI50 [15]: > 100 µM | TGI [15]: > 100 µM | GI50 [16]: > 100 µM | TGI [16]: > 100 µM | GI50 [18]: > 100 µM | TGI [18]: > 100 µM | GI50 [19]: > 100 µM | TGI [19]: > 100 µM | GI50 [20]: > 100 µM | TGI [20]: > 100 µM | GI50 [21]: 20.2 µM | TGI [21]: > 100 µM | GI50 [22]: > 100 µM | TGI [22]: > 100 µM | GI50 [23]: > 100 µM | TGI [23]: > 100 µM | GI50 [24]: > 100 µM | TGI [24]: > 100 µM | GI50 [25]: > 100 µM | TGI [25]: > 100 µM | GI50 [26]: 5.1 µM | TGI [26]: > 100 µM | GI50 [27]: 88.9 µM | TGI [27]: > 100 µM | GI50 [28]: > 100 µM | TGI [28]: > 100 µM | GI50 [29]: > 100 µM | TGI [29]: > 100 µM | GI50 [30]: > 100 µM | TGI [30]: > 100 µM | GI50 [31]: 85.5 µM | TGI [31]: > 100 µM | GI50 [32]: > 100 µM | TGI [32]: > 100 µM | GI50 [33]: > 100 µM | TGI [33]: > 100 µM | GI50 [34]: > 100 µM | TGI [34]: > 100 µM | GI50 [35]: 55.3 µM | TGI [35]: > 100 µM | GI50 [36]: > 100 µM | TGI [36]: > 100 µM | GI50 [37]: > 100 µM | TGI [37]: > 100 µM | GI50 [38]: 1.6 µM | TGI [38]: > 100 µM | GI50 [39]: > 100 µM | TGI [39]: > 100 µM | GI50 [40]: > 100 µM | TGI [40]: > 100 µM | GI50 [41]: > 100 µM | TGI [41]: > 100 µM | GI50 [42]: > 100 µM | TGI [42]: > 100 µM | GI50 [43]: 64.7 µM | TGI [43]: > 100 µM | GI50 [45]: > 100 µM | TGI [45]: > 100 µM | GI50 [46]: > 100 µM | TGI [46]: > 100 µM | GI50 [48]: > 100 µM | TGI [48]: > 100 µM | GI50 [49]: 1.09 µM | TGI [49]: 24.1 µM | GI50 [50]: > 100 µM | TGI [50]: > 100 µM | GI50 [51]: > 100 µM | TGI [51]: > 100 µM | GI50 [52]: > 100 µM | TGI [52]: > 100 µM | GI50 [53]: > 100 µM | TGI [53]: > 100 µM | GI50 [54]: > 100 µM | TGI [54]: > 100 µM | GI50 [55]: > 100 µM | TGI [55]: > 100 µM | GI50 [56]: > 100 µM | TGI [56]: > 100 µM | GI50 [57]: > 100 µM | TGI [57]: > 100 µM
